In article PMC10650850, “Discovery, Structure–Activity Relationship and In Vitro Anticancer Activity of Small-Molecule Inhibitors of the Protein–Protein Interactions between AF9/ENL and AF4 or DOT1L” (Cancers, 2023):
Structures can show the parent of a compound that is named as a salt.

Target: T1, AF9-DOT1L interaction (Homo sapiens, UniProt P42568)
T1 construct: human AF9 AHD domain (475–568); made in house; host or cells: E. coli BL21(DE3)
T1 sequence (P42568 475-568): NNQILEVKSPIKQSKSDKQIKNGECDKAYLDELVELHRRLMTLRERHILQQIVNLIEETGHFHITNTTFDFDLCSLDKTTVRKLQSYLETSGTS
Assay: AlphaLisa assay, AF9-DOT1L interaction
Type: binding
Conditions: not given
Source text: An AlphaLisa assay we previously developed was used for compound screening for inhibitors of the AF9-DOT1L interaction. The PPI takes the DOT1L-peptide coated donor beads and AF9 AHD coated acceptor beads together. The donor beads are illuminated with a laser beam (680 nm) to generate singlet oxygen radicals, which activate the adjacent acceptor beads to produce luminescence at 615 nm. When a compound can disrupt such PPI and separate the donor and acceptor beads, the highly unstable radicals are rapidly quenched by water without generating luminescence.
The cDNA for the human AF9 AHD domain (475–568) and ENL AHD domain (489–559) was synthesized (by Genscript, Piscataway, NJ, USA) and inserted into the pMAL c5X expression plasmid. The DOT1L peptide (Biotin-AHX-[…]) and AF4 peptide (Biotin-AHX-[…]) for the Alpha assay were purchased from Genscript.
Alpha assays were developed in our previous publication, using a Perkin-Elmer AlphaLisa anti-MBP kit, which contains streptavidin donor beads and anti-MBP acceptor beads. Briefly, the assay was performed using a MBP-protein (5 nM), a biotinylated peptide (40 nM), and increasing concentrations of a compound in 25 µL buffer (PBS with 0.5% BSA, pH 7.5) in 384-well plates according to the manufacturer’s protocol and measured with a Tecan SPARK microplate reader. Data were imported into Prism (version 5.0), and IC50 values from 3 independent experiments with standard deviation were obtained by using a standard dose-response curve fitting.

Row | SMILES | Inhibitory activity against the AF9-DOT1L interaction (in words)
1 | O=C(NCC1CCNCC1)c1cc2ccc(-c3ccsc3)cc2[nH]1 [Compound 11] | almost inactive

Same assay, conditions: MBP-protein 5 nM, biotinylated peptide 40 nM, 3 independent experiments with standard deviation, read-out: IC50 (μM) against the AF9-DOT1L interaction

Row | SMILES | IC50
2 | O=C(NCC1CCNCC1)c1cc2ccc(-c3ccc(N4CCCC4)cc3)cc2[nH]1 [Compound 3, 6-(4-(1-Pyrrolinylphenyl)-N-(piperidin-4-ylmethyl)-1H-indole-2-carboxamide hydrochloride] | 2.8 ± 0.2 µM
3 | O=C(NCC1CCNCC1)c1cc2ccc(Oc3ccc(Oc4ccc(Cl)cc4)cc3)cc2s1 [Compound 36, 6-(4-(4-Chlorophenoxyl)phenoxyl)-N-(piperidin-4-ylmethyl)-benzo[b]thiophene-2-carboxamide hydrochloride] | ~5 µM
4 | O=C(NCC1CCNCC1)c1cc2ccc(-c3ccc(N4CCCCC4)cc3)cc2[nH]1 [Compound 1] | 3.3 ± 0.2 µM
5 | O=C(NCC1CCNCC1)c1cc2ccc(Nc3ccc(N4CCCCC4)cc3)cc2o1 [Compound 74, 6-((4-(Piperidin-1-yl)phenyl)amino)-N-(piperidin-4-ylmethyl)-benzofuran-2-carboxamide hydrochloride] | 4.6 ± 0.3 µM

Same assay, conditions: compound at 5 μM, read-out: % Inhibition at 5 μM against the AF9-DOT1L interaction

Row | SMILES | inhibition at 5 µM
6 | O=C(NCC1CCNCC1)c1cc2ccc(-c3ccc(Cl)cc3)cc2s1 [Compound 48, 6-(4-Chlorophenyl)-N-(piperidin-4-ylmethyl)-benzo[b]thiophene-2-carboxamide hydrochloride] | ~50%
7 | O=C(NCC1CCNCC1)c1cc2ccc(-c3ccc(C4CCCCC4)cc3)cc2[nH]1 [Compound 4, 6-(4-Cyclohexylphenyl)-N-(piperidin-4-ylmethyl)-1H-indole-2-carboxamide hydrochloride] | 31%
8 | O=C(NCC1CCNCC1)c1cc2ccc(N3CCC(N4CCCC4)CC3)cc2s1 [Compound 32] | 20%
9 | O=C(NCC1CCNCC1)c1cc2ccc(-c3ccc(-c4ccsc4)cc3)cc2[nH]1 [Compound 6] | 14%
10 | O=C(NCC1CCNCC1)c1cc2ccc(Nc3ccc(OC(F)(F)F)cc3)cc2o1 [Compound 75, 6-((4-Trifuluoromethoxyl)phenyl)amino)-N-(piperidin-4-ylmethyl)-benzofuran-2-carboxamide hydrochloride] | 23%
11 | O=C(NCC1CCNCC1)c1cc2ccc(-c3ccc(C4CCCCC4)cc3)cc2o1 [Compound 61, 6-(4-Cyclohexylphenyl)-N-(piperidin-4-ylmethyl)-benzofuran-2-carboxamide hydrochloride] | 18%
12 | O=C(NCC1CCNCC1)c1cc2ccc(Oc3ccc(Oc4ccc(Cl)cc4)cc3)cc2s1 [Compound 36, 6-(4-(4-Chlorophenoxyl)phenoxyl)-N-(piperidin-4-ylmethyl)-benzo[b]thiophene-2-carboxamide hydrochloride] | 50%
13 | O=C(NCC1CCNCC1)c1cc2ccc(-c3ccc(N4CCNCC4)cc3)cc2o1 [Compound 59, 6-(4-(Piperazin-1-yl)phenyl)-N-(piperidin-4-ylmethyl)-benzofuran-2-carboxamide hydrochloride] | 38%
14 | O=C(NCC1CCNCC1)c1cc2ccc(-c3ccsc3)cc2[nH]1 [Compound 11] | 10%
15 | O=C(NCC1CCNCC1)c1cc2cc(-c3ccc(N4CCNCC4)cc3)ccc2[nH]1 [Compound 18] | 36%
16 | CCN(CC)c1ccc(-c2ccc3cc(C(=O)NCC4CCNCC4)oc3c2)cc1 [Compound 62, 6-(4-(Diethylamino)phenyl)-N-(piperidin-4-ylmethyl)-benzofuran-2-carboxamide hydrochloride] | 30%
17 | CC(=O)c1ccc(-c2ccc3cc(C(=O)NCC4CCNCC4)[nH]c3c2)cc1 [Compound 8, 6-(4-Acetophenyl)-N-(piperidin-4-ylmethyl)-1H-indole-2-carboxamide hydrochloride] | 37%
18 | O=C(NCC1CCNCC1)c1cc2ccc(-c3ccc(N4CCNCC4)cc3)cc2[nH]1 [Compound 5] | 40%
19 | CS(=O)(=O)c1ccc(-c2ccc3cc(C(=O)NCC4CCNCC4)sc3c2)cc1 [Compound 43, 6-(4-(Methylsulfonyl)phenyl)-N-(piperidin-4-ylmethyl)-benzo[b]thiophene-2-carboxamide hydrochloride] | 49%
20 | Cc1cc(C#N)ccc1-c1ccc2[nH]c(C(=O)NCC3CCNCC3)cc2c1 [Compound 21] | 0%
21 | O=C(NCC1CCNCC1)c1cc2ccc(-c3ccc(CO)cc3)cc2s1 [Compound 39, 6-(4-(Hydroxylmethyl)phenyl)-N-(piperidin-4-ylmethyl)-benzo[b]thiophene-2-carboxamide hydrochloride] | 0%
22 | NCc1ccc(-c2ccc3c(C(=O)NCC4CCNCC4)c[nH]c3c2)cc1 [Compound 14] | 11%
23 | N#Cc1ccc(-c2ccc3cc(C(=O)NCC4CCNCC4)sc3c2)cc1F [Compound 42, 6-(4-Cyano-3-fluorophenyl)-N-(piperidin-4-ylmethyl)-benzo[b]thiophene-2-carboxamide hydrochloride] | 26%

Row | SMILES | inhibition at 5 µM
24 | N#Cc1ccc(-c2ccc3sc(C(=O)NCC4CCNCC4)cc3c2)cc1 [Compound 53, 5-(4-Cyanophenyl)-N-(piperidin-4-ylmethyl)-benzo[b]thiophene-2-carboxamide hydrochloride] | 23%
25 | CC(C)(C)c1ccc(-c2ccc3cc(C(=O)NCC4CCNCC4)sc3c2)cc1 [Compound 40, 6-(4-(Tert-butyl)phenyl)-N-(piperidin-4-ylmethyl)-benzo[b]thiophene-2-carboxamide hydrochloride] | 19%
26 | O=C(NCC1CCNCC1)c1cc2ccc(-c3ccc(OC(F)(F)F)cc3)cc2s1 [Compound 44, 6-(4-Trifluoromethoxylphenyl)-N-(piperidin-4-ylmethyl)-benzo[b]thiophene-2-carboxamide hydrochloride] | 14%
27 | O=C(NCc1ccc(-c2ccc3cc(C(=O)NCC4CCNCC4)oc3c2)cc1)OCc1ccccc1 [Compound 71, 6-(4-(Benzyloxycarbonylaminomethyl)phenyl)-N-(piperidin-4-ylmethyl)-benzofuran-2-carboxamide hydrochloride] | 27%
28 | CN1CCN(c2ccc(-c3ccc4cc(C(=O)NCC5CCNCC5)oc4c3)cc2)CC1 [Compound 60, 6-(4-(4-Methylpiperazin-1-yl)phenyl)-N-(piperidin-4-ylmethyl)-benzofuran-2-carboxamide hydrochloride] | 32%
29 | Cc1ccc(-c2ccc3cc(C(=O)NCC4CCNCC4)sc3c2)cc1 [Compound 47, 6-(4-Methylphenyl)-N-(piperidin-4-ylmethyl)-benzo[b]thiophene-2-carboxamide hydrochloride] | 47%
30 | O=C(NCC1CCNCC1)c1cc2ccc(N3CCC(N4CCCCC4)CC3)cc2s1 [Compound 31] | 14%
31 | N#Cc1ccc(-c2ccc3[nH]c(C(=O)NCC4CCNCC4)cc3c2)cc1F [Compound 20, 5-(3-Fluoro-4-cyanophenyl)-N-(piperidin-4-ylmethyl)-1H-indole-2-carboxamide hydrochloride] | 8%
32 | CC(C)(C)c1ccc(-c2ccc3[nH]c(C(=O)NCC4CCNCC4)cc3c2)cc1 [Compound 19] | 13%
33 | O=C(NCC1CCNCC1)c1cc2cc(Nc3ccc(OC(F)(F)F)cc3)ccc2s1 [Compound 56, 5-((4-(Trifluoromethoxyl)phenyl)amino)-N-(piperidin-4-ylmethyl)-benzo[b]thiophene-2-carboxamide hydrochloride] | 24%
34 | O=C(NCC1CCNCC1)c1cc2ccc(-c3ccc(O)cc3)cc2s1 [Compound 46, 6-(4-Hydroxylphenyl)-N-(piperidin-4-ylmethyl)-benzo[b]thiophene-2-carboxamide hydrochloride] | 0%
35 | O=C(NCC1CCNCC1)c1cc2ccc(-c3ccc(C(=O)N4CCC(N5CCCCC5)CC4)cc3)cc2o1 [Compound 66, 6-(4-((1,4′-Bipiperidine-1-yl)carbonyl)phenyl)-N-(piperidin-4-ylmethyl)-benzofuran-2-carboxamide hydrochloride] | 0%
36 | O=C(NCC1CCNCC1)c1cc2ccc(-c3ccc(-c4ccccc4)cc3)cc2o1 [Compound 67, 6-((1,1′-Biphenyl)-4-yl)-N-(piperidin-4-ylmethyl)-benzofuran-2-carboxamide hydrochloride] | 0%
37 | O=C(NCC1CCNCC1)c1cc2cc(-c3ccc(C(=O)N4CCCCC4)cc3)ccc2s1 [Compound 51, 5-(4-(Piperidine-1-carbonyl)phenyl)-N-(piperidin-4-ylmethyl)-benzo[b]thiophene-2-carboxamide hydrochloride] | 31%
38 | O=C(NCC1CCNCC1)c1cc2ccc(-c3ccc(C(=O)N4CCCC4)cc3)cc2s1 [Compound 30] | 0%
39 | O=C(NCC1CCNCC1)c1c[nH]c2cc(-c3ccc(N4CCOCC4)cc3)ccc12 [Compound 13, 6-(4-(Morpholinophenyl)-N-(piperidin-4-ylmethyl)-1H-indole-3-carboxamide hydrochloride] | 29%
40 | O=C(NCC1CCNCC1)c1cc2ccc(-c3ccc(CCO)cc3)cc2[nH]1 [Compound 7] | 5.6%
